{
  "source": "patent US11638429B2",
  "about": "“Hypochlorous acid disinfectant and its production method” (SUPER AQUA INTERNATIONAL CO., LTD., priority 2020, dated 2023)",
  "origin": "cited, not measured here",
  "tested_on": "coliform",
  "conditions": "versus hypochlorite ion (CLO—); FIG. 2, U.S. EPA",
  "data": [
    {"smiles": "OCl", "note": "[hypochlorous acid (HCLO), hypochlorous acid]", "values": [
      {"measurement": "sterilization of hypochlorous acid (HCLO) relative to hypochlorite ion (CLO—)", "value": 80, "unit": "times"}
    ]}
  ]
}
